In general, MIC refers to the least concentration at which growth counts as inhibited. A higher MIC goes with weaker potency.

In brackets after ≈: the same amount, converted by molar mass.

Test systems include Escherichia coli BL21; Staphylococcus aureus; Bacillus subtilis 168; Escherichia coli B; Pseudomonas aeruginosa; Acinetobacter baumannii; Enterococcus faecalis; Klebsiella pneumoniae; Escherichia coli.
What all share (assay): ≥ marks a high value that may be exact or a test limit, other limits are often not marked, values filed in µg/mL are converted to µM
In test [1] the test system is Escherichia coli KCTC 1682.
In test [2] the test system is Bacillus subtilis KCTC 3068.
The subject of test [3] is Salmonella typhimurium KCTC 1926.
The test system of test [4] is Staphylococcus aureus KCTC 1621.
Test [5] deals with Staphylococcus aureus ATCC 6538.
Test [6] concerns Escherichia coli ATCC 8739.
The test system of test [7] is Bacillus subtilis ATCC 6633.
Test [8] relates to Pseudomonas aeruginosa ATCC 9027.
For test [9], the system named is Staphylococcus epidermidis.
The test system of test [10] is Staphylococcus aureus ATCC 25923.

With `CC[C@H](C)[C@H](NC(=O)[C@@H]1CCCN1C(=O)[C@H](CC(C)C)NC(=O)[C@H](Cc1ccc(O)cc1)NC(=O)[C@H](Cc1cnc[nH]1)NC(=O)[C@H](C)NC(=O)CNC(=O)[C@H](C)NC(=O)[C@@H](NC(=O)[C@H](C)NC(=O)[C@H](CS)NC(=O)[C@H](C)NC(=O)[C@@H]1CCCN1C(=O)CNC(=O)[C@H](CS)NC(=O)[C@@H](NC(=O)[C@@H](NC(=O)CNC(=O)CNC(=O)[C@@H](N)C(C)C)[C@@H](C)O)[C@@H](C)CC)C(C)C)C(=O)O` [VGGTICGPACAVAGAHYLPI], the MIC against Escherichia coli BL21 is ≥ 128 µM.

Regarding `CC(C)C[C@H](NC(=O)[C@H](Cc1ccccc1)NC(=O)[C@@H]1CCCN1C(=O)[C@H](Cc1c[nH]c2ccccc12)NC(=O)[C@H](Cc1c[nH]c2ccccc12)NC(=O)[C@H](Cc1c[nH]c2ccccc12)NC(=O)[C@@H]1CCCN1C(=O)[C@H](Cc1ccccc1)NC(=O)[C@H](CCCNC(=N)N)NC(=O)[C@H](CCCNC(=N)N)NC(=O)[C@@H](N)C(C)C)C(=O)N[C@@H](CCCNC(=N)N)C(=O)N[C@@H](CCCNC(=N)N)C(=O)O` [VRRFPWWWPFLRR], the MIC in [1] is ≥ 33.6 µM; in [2], 8.41 µM (≈ 16 µg/mL); in test [3] it was 16.8 µM (≈ 32 µg/mL); in test [4] it was 8.41 µM (≈ 16 µg/mL).

Take `CC[C@H](C)[C@H](NC(=O)[C@H](C)NC(=O)[C@H](CC(C)C)NC(=O)[C@H](CC(=O)O)NC(=O)[C@H](CCCCN)NC(=O)[C@H](Cc1ccccc1)NC(=O)[C@@H](NC(=O)[C@@H](NC(=O)[C@H](CC(C)C)NC(=O)[C@H](Cc1ccccc1)NC(=O)[C@@H](N)CO)[C@@H](C)O)[C@@H](C)O)C(=O)N[C@@H](CCCCN)C(=O)N[C@@H](C)C(=O)N[C@@H](C)C(=O)N[C@@H](CCCCN)C(=O)N[C@@H](CO)C(=O)N[C@@H](C)C(=O)NCC(=O)N[C@@H](CCC(N)=O)C(=O)N[C@@H](CO)C(=O)N[C@H](C(=O)N[C@@H](CC(C)C)C(=O)N[C@@H](CO)C(=O)N[C@H](C(=O)N[C@@H](CC(C)C)C(=O)N[C@@H](CO)C(=O)N[C@H]1CSSC[C@@H](C(=O)O)NC(=O)[C@H]([C@@H](C)O)NC(=O)[C@H](CC(N)=O)NC(=O)[C@H](CO)NC(=O)[C@H](CC(C)C)NC(=O)[C@H](CCCCN)NC1=O)[C@@H](C)O)C(C)C` [SFLTTFKDLAIKAAKSAGQSVLSTLSCKLSNTC]: the MIC amounted to 6.3 µM (≈ 21.6 µg/mL) in test [5], 12.5 µM (≈ 42.9 µg/mL) in [6] and 25 µM (≈ 85.8 µg/mL) in test [7].

Consider `CC[C@H](C)[C@H](NC(=O)[C@H](CO)NC(=O)[C@H](CC(C)C)NC(=O)[C@H](Cc1ccccc1)NC(=O)CN)C(=O)N[C@@H](CC(C)C)C(=O)N[C@@H](CCCCN)C(=O)N[C@@H](CCCCN)C(=O)N[C@H](C(=O)N[C@@H](CC(C)C)C(=O)N1CCC[C@H]1C(=O)N[C@@H](CCCCN)C(=O)N[C@H](C(=O)N[C@@H](CCSC)C(=O)N[C@@H](C)C(=O)N[C@@H](Cc1cnc[nH]1)C(=O)N[C@@H](CCSC)C(=O)N[C@@H](CCCCN)C(N)=O)C(C)C)C(C)C` [GFLSILKKVLPKVMAHMK], for which the minimum inhibitory concentration (MIC) with Staphylococcus aureus worked out at 40 µM (≈ 81.6 µg/mL); in the test on Bacillus subtilis 168, 0.62 µM (≈ 1.26 µg/mL); in the test on Escherichia coli B, 1 µM (≈ 2.04 µg/mL); in the test with Pseudomonas aeruginosa, 22 µM (≈ 44.9 µg/mL).

As to `CC[C@H](C)[C@H](NC(=O)[C@H](CC(N)=O)NC(=O)[C@H](CCCN=C(N)N)NC(=O)CNC(=O)[C@H](CCSC)NC(=O)[C@H](CCCCN)NC(=O)[C@H](CCC(=O)O)NC(=O)[C@@H](NC(=O)[C@H](CCCCN)NC(=O)[C@H](CC(C)C)NC(=O)[C@H](Cc1ccccc1)NC(=O)[C@@H](NC(=O)[C@H](CCCCN)NC(=O)[C@H](CCC(=O)O)NC(=O)[C@H](CCCCN)NC(=O)[C@@H]1CCCN1C(=O)[C@@H](N)CCSC)C(C)C)[C@@H](C)CC)C(=O)N[C@@H](CCCN=C(N)N)C(=O)N[C@@H](CC(N)=O)C(N)=O` [MPKEKVFLKIEKMGRNIRN], the MIC in test [8] and in [5] was > 85.8 µM throughout.

`CC[C@H](C)[C@H](NC(=O)CNC(=O)[C@H](CCCN=C(N)N)NC(=O)[C@H](Cc1ccc(O)cc1)NC(=O)[C@H](CC(C)C)NC(=O)[C@H](CCCCN)NC(=O)CNC(=O)[C@H](Cc1ccccc1)NC(=O)[C@@H](N)Cc1c[nH]c2ccccc12)C(=O)N[C@H](C(=O)N[C@@H](CCCCN)C(=O)N[C@H](C(=O)N[C@H](C(=O)N[C@@H](CCCCN)C(=O)N[C@@H](CCCCN)C(=O)N[C@H](C(=O)N[C@@H](CCCCN)C(=O)NCC(=O)N[C@@H](CC(C)C)C(=O)N[C@@H](CC(C)C)C(=O)N[C@@H](CCCCN)C(=O)NCC(=O)O)C(C)C)C(C)C)C(C)C)[C@@H](C)O` [WFGKLYRGITKVVKKVKGLLKG]: the MIC against Acinetobacter baumannii amounted to 0.6 µM (≈ 1.51 µg/mL); in the test with Staphylococcus aureus it was 9.9 µM (≈ 24.9 µg/mL); against Enterococcus faecalis, 1.2 µM (≈ 3.02 µg/mL); with Klebsiella pneumoniae, 0.6 µM (≈ 1.51 µg/mL); in test [9], 1.2 µM (≈ 3.02 µg/mL); in the test on Escherichia coli, 1.2 µM (≈ 3.02 µg/mL). In the test on Pseudomonas aeruginosa, this compound displayed a minimum inhibitory concentration (MIC) of 1.3 µM (≈ 3.27 µg/mL).

For the compound `CC[C@H](C)[C@H](NC(=O)[C@H](Cc1cnc[nH]1)NC(=O)[C@H](CCCCN)NC(=O)[C@H](CC(C)C)NC(=O)[C@H](CCCCN)NC(=O)[C@H](CO)NC(=O)[C@H](CCSC)NC(=O)[C@H](Cc1c[nH]c2ccccc12)NC(=O)[C@H](CCCCN)NC(=O)CN)C(=O)N[C@@H](CC(C)C)C(=O)N[C@@H](CCCCN)C(N)=O` [GKWMSKLKHILK], the MIC was > 100 µM with Staphylococcus aureus, 3.7 µM (≈ 5.43 µg/mL) against Bacillus subtilis 168, ≥ 45 µM with Escherichia coli B and > 100 µM in the test with Pseudomonas aeruginosa.

As for `CC(C)C[C@H](NC(=O)[C@H](CCCCN)NC(=O)[C@H](CCCCN)NC(=O)[C@H](C)NC(=O)[C@H](CC(C)C)NC(=O)[C@H](CCCCN)NC(=O)[C@H](CCCCN)NC(=O)[C@H](C)NC(=O)[C@H](Cc1ccccc1)NC(=O)[C@H](CCCCN)NC(=O)[C@H](CCCCN)NC(=O)[C@H](Cc1ccccc1)NC(=O)[C@H](CC(C)C)NC(=O)[C@H](CCCCN)NC(=O)[C@@H](NC(=O)[C@H](CCCCN)NC(=O)[C@H](CCCCN)NC(=O)[C@H](CCCCN)NC(=O)[C@H](Cc1ccccc1)NC(=O)[C@H](CC(C)C)NC(=O)[C@H](CCCCN)NC(=O)[C@H](Cc1c[nH]c2ccccc12)NC(=O)[C@@H](N)CCCCN)[C@@H](C)O)C(=O)O` [KWKLFKKKTKLFKKFAKKLAKKL], the results for the MIC in test [8] and in test [5] were > 69.5 µM and 3.47 µM (≈ 10 µg/mL), respectively.

With `CSCC[C@H](N)C(=O)N[C@@H](CO)C(=O)N[C@@H](C)C(=O)N[C@@H](CCC(=O)O)C(=O)N[C@H](C(=O)N[C@H](C(=O)N[C@H](C(=O)N[C@@H](CCCCN)C(=O)N[C@@H](CCCCN)C(=O)N[C@H](C(=O)N[C@@H](CC(=O)O)C(=O)NCC(=O)N[C@@H](CC(=O)O)C(=O)N[C@@H](C)C(=O)N[C@@H](CC(C)C)C(=O)N[C@@H](CCC(=O)O)C(=O)N[C@@H](CC(C)C)C(=O)NCC(=O)O)C(C)C)C(C)C)C(C)C)C(C)C` [MSAEVVVKKVDGDALELG], the MIC in [10] is > 138 µM; in test [6] it was ≥ 138 µM.

On to `CC[C@H](C)[C@H](NC(=O)[C@H](CCCCN)NC(=O)[C@H](C)NC(=O)[C@@H](NC(=O)[C@@H](NC(=O)[C@H](CCCN=C(N)N)NC(=O)[C@H](C)NC(=O)[C@H](CC(C)C)NC(=O)[C@@H](NC(=O)[C@H](CCCCN)NC(=O)[C@H](C)NC(=O)[C@H](C)NC(=O)[C@H](Cc1ccccc1)NC(=O)[C@H](CC(C)C)NC(=O)[C@H](CCCCN)NC(=O)[C@H](CCCCN)NC(=O)[C@H](CCSC)NC(=O)[C@@H]1CCCN1)[C@@H](C)CC)C(C)C)C(C)C)C(=O)N[C@@H](Cc1c[nH]c2ccccc12)C(=O)O` [PMKKLFAAKILARVVAKIW], for which the minimum inhibitory concentration (MIC) is > 117 µM in test [10] and 14.7 µM (≈ 32 µg/mL) in test [6].

Values taken from DBAASP.
